The record followed here is US5773421A, “Antifungal fusacandins” (Abbott Laboratories, priority 1995, dated 1998).

Assay [1] deals with Staphylococcus aureus ATTC 6538p. The assay is described as follows: MIC by agar dilution method. Conditions: ATTC6538P; Table 6a; Staphylococcus aureus ATTC 6538p; agar dilution, 32° C., 20 hours; read-out: MIC. It counts as cell-based. Background: Agar dilution tests growth on a series of plates holding different concentrations.
Assay [2] relates to Streptococcus bovis A-5169. Description: MIC by agar dilution method. The class given is cell-based. The following applies: Streptococcus equinus, A5169; Table 6a; Streptococcus bovis A-5169; agar dilution, 32° C., 20 hours; read-out: MIC.
The target in another assay is T1, (1,3)-β-Glucan Synthase (Candida albicans, UniProt O13428).
T1 construct: microsomal enzyme preparation C. albicans CCH 442; endogenous in cells; host or cells: Candida albicans CCH 442, microsomes
Description: In vitro inhibition of (1,3)-β-glucan synthase activity, microsomal enzyme preparation. The class given is biochemical. The following applies: C. albicans CCH 442 microsomal enzyme. As to the method: The assay was conducted in a final volume of 100 μL of 2.0 mM UDP-[^14 C]-Glc (0.625 mCi/mmol), 1 mM EDTA, 8% (v/v) glycerol, 20 μM GTPgS, 0.5% Brij-35(v/v) or 0.8% BSA, 80 mM Tris/HCl, pH 7.75, and microsomal enzyme preparation C. albicans CCH 442 (100 μg of protein). A detailed description of this assay is described by Frost, D., Brandt, K. Capobioanco, and Goldman, R., Microbiology 140: 2239-2246 (1994) which is incorporated herein by reference.

Another assay concerns the target T2, glucan synthase (Candida albicans, UniProt O13428).
T2 construct: Microsomes isolated from mid-log phase grown yeast; endogenous in cells; host or cells: Candida albicans, mid-log phase yeast cells, microsomes
Description: Microtiter screen for inhibitors of (1,3)-β-glucan formation in cell free extracts. The class given is biochemical. The following applies: C. albicans microsomes, [14C]UDP-Glc, water-insoluble β-glucan product on filter. The source says: The fungal cell wall serves as a protective barrier and is essential for viability in a hypotonic environment. (1,3)-β-Glucan is a component of the Candida albicans cell wall, and the enzyme that biosynthesizes this polymer, glucan synthase, is not present in higher eukaryotes. (Glucan synthase is an integral plasma membrane protein that catalyzes polymerization of uridine diphosphate-glucose (UDP-Glc) into β-glucan.) Accordingly, glucan synthase represents an ideal target for the development of antifungal agents.
A microtiter screen was established to detect inhibitors of (1 ,3)-β-glucan formation in C. albicans cell free extracts. Microsomes isolated from mid-log phase grown yeast were incubated with [^14 C]UDP-Glc, effectors and test compound (fusacandin A, Example 4). The formation of the water-insoluble β-glucan product was measured on a filter after removing the substrate with water washes.

A short description of assay [3]: MIC by broth dilution assay. Conditions: Table 6d, 2 ×10^5 organisms/mL. It counts as cell-based. As for the experimental part: Minimal inhibitory concentrations (MICs) were determined by a broth dilution assay described by Frost, D., Brandt, K., Cugier, D., and Goldman, R. in J. Antibiotics 48: 306-310 (1995) which is incorporated herein by reference. The final concentration of cells was 2 ×10^5 organisms/mL.

For assay [4], the system named is Streptococcus pyrogenes EES61. The assay is described as follows: MIC by agar dilution method. The following applies: Table 6a; Streptococcus pyrogenes EES61; agar dilution, 32° C., 20 hours; read-out: MIC. The class given is cell-based.
For the next assay, the system named is Candida albicans CCH 442. The assay is described as follows: MIC by agar dilution method. Conditions: CCH442, agar dilution. The class given is cell-based. As to the method:
(§1) Minimal inhibitory concentrations (MICs) were determined by an agar dilution method. The test compounds were serially diluted in MeOH and 0.2 mL portions were mixed with 20 mL of molten, cooled Sabouraud dextrose agar (Difco). Yeast cell inoculum was prepared by growing cultures on Sabouraud dextrose agar for 18 hours at 32° C. and suspending the cells in phosphate buffered saline. Filamentous fungi were grown under the same conditions for 4 days to obtain spores. The inoculum level for all cultures was adjusted to 10^4 cells using a Petroff-Hauser cell counter. The glutarimide antifungal compounds cycloheximide or amphotericin B were used as a control. Inoculated test plates were incubated at 32° C. and examined after 20 hours.

The subject of the next assay is Candida kefyr ATTC 288. The assay is described as follows: MIC by agar dilution method. The class given is cell-based. Conditions: Kluyveromyces marxianus. As to the method: as §1
Assay [5] has as its system Aspergillus niger ATCC 164. Description: MIC by agar dilution method. It counts as cell-based. Conditions: ATCC164, Aspergillus niger ATCC 164, agar dilution, 32° C., 20 hours, read-out: MIC. As for the experimental part:
as §1

For assay [6], the system named is Saccharomyces cereviseae GS1-36. Description: MIC by agar dilution method. It counts as cell-based. Conditions: GS136, Saccharomyces cereviseae GS1-36, agar dilution, 32° C., 20 hours, read-out: MIC. As for the experimental part: as §1
A further assay deals with Candida albicans 579a. The assay is described as follows: MIC by agar dilution method. It counts as cell-based. As to the method:
as §1

The test system of assay [7] is Candida tropicalis NRRL-Y-1. The assay is described as follows: MIC by agar dilution method. The class given is cell-based. The following applies: NRRLY1, agar dilution, 32° C., 20 hours, read-out: MIC. As for the experimental part: as §1
The test system of assay [8] is Candida albicans ATCC 623. The assay is described as follows: MIC by agar dilution method. It counts as cell-based. The following applies: ATCC623, Candida albicans ATCC 623, agar dilution, 32° C., 20 hours, read-out: MIC. As for the experimental part:
as §1

Assay [9] deals with Torulopsis glabrata ATCC 155. Description: MIC by agar dilution method. The following applies: Nakaseomyces glabratus, ATCC155, Torulopsis glabrata ATCC 155, agar dilution, 32° C., 20 hours, read-out: MIC. It counts as cell-based. As for the experimental part:
as §1

Assay [10] deals with Candida albicans ATCC 38247. Description: MIC by agar dilution method. Conditions: ATCC38247; Table 6c; IV Candida albicans ATCC 38247; agar dilution; read-out: MIC IV. It counts as cell-based. As to the method:
as §1

Assay [11] concerns Candida albicans ATCC 997. The assay is described as follows: MIC by agar dilution method. It counts as cell-based. Conditions: ATCC997; Table 6a; Candida albicans ATCC 997; agar dilution, 32° C., 20 hours; read-out: MIC. As to the method:
as §1

Assay [12] relates to Candida albicans ATCC 10231. The assay is described as follows: MIC by agar dilution method. The following applies: ATCC10231; Table 6c; I Candida albicans ATCC 10231; agar dilution; read-out: MIC I. It counts as cell-based. As for the experimental part:
as §1

The subject of assay [13] is Candida albicans ATCC 62376. The assay is described as follows: MIC by agar dilution method. It counts as cell-based. Conditions: ATCC62376; Table 6c; V Candida albicans ATCC 62376; agar dilution; read-out: MIC V. As for the experimental part: as §1
The subject of assay [14] is Nocardia asteroides ATTC 9970. The assay is described as follows: MIC by agar dilution method. The class given is cell-based. Conditions: ATTC9970; Table 6a; Nocardia asteroides ATTC 9970; agar dilution, 32° C., 20 hours; read-out: MIC.
The nature of assay [15]: Minimum inhibitory concentration (MIC) stated with the glucan synthase screen. The following applies: organism not given. The class given is cell-based.
In assay [16] the test system is Candida albicans ATCC 102. Description: MIC by agar dilution method. It counts as cell-based. Conditions: ATCC102, 20 h. As for the experimental part: as §1
Assay [17] has as its system Candida albicans ATCC 382. Description: MIC by agar dilution method. The class given is cell-based. The following applies: ATCC382, 20 h. As to the method: as §1
Assay [18] has as its system Cryptococcus albidus ATCC 341. Description: MIC by agar dilution method. It counts as cell-based. The following applies: Naganishia albida, ATCC341, Table 6b, 32° C., 20 hours. As to the method:
as §1

Where [19] appears, read: Table 6c, 3rd value column (head printed II), III Candida albicans CCH 442, read-out: MIC II.
The mark [20] stands for this setting: Table 6c, II Candida albicans 579a, agar dilution, read-out: MIC II.

Molecules are shown by their SMILES. Converted amounts (≈) assume the structure as drawn. Read-outs that look alike come from different tables or passages of the source.

T1 sequence (O13428 1-1897): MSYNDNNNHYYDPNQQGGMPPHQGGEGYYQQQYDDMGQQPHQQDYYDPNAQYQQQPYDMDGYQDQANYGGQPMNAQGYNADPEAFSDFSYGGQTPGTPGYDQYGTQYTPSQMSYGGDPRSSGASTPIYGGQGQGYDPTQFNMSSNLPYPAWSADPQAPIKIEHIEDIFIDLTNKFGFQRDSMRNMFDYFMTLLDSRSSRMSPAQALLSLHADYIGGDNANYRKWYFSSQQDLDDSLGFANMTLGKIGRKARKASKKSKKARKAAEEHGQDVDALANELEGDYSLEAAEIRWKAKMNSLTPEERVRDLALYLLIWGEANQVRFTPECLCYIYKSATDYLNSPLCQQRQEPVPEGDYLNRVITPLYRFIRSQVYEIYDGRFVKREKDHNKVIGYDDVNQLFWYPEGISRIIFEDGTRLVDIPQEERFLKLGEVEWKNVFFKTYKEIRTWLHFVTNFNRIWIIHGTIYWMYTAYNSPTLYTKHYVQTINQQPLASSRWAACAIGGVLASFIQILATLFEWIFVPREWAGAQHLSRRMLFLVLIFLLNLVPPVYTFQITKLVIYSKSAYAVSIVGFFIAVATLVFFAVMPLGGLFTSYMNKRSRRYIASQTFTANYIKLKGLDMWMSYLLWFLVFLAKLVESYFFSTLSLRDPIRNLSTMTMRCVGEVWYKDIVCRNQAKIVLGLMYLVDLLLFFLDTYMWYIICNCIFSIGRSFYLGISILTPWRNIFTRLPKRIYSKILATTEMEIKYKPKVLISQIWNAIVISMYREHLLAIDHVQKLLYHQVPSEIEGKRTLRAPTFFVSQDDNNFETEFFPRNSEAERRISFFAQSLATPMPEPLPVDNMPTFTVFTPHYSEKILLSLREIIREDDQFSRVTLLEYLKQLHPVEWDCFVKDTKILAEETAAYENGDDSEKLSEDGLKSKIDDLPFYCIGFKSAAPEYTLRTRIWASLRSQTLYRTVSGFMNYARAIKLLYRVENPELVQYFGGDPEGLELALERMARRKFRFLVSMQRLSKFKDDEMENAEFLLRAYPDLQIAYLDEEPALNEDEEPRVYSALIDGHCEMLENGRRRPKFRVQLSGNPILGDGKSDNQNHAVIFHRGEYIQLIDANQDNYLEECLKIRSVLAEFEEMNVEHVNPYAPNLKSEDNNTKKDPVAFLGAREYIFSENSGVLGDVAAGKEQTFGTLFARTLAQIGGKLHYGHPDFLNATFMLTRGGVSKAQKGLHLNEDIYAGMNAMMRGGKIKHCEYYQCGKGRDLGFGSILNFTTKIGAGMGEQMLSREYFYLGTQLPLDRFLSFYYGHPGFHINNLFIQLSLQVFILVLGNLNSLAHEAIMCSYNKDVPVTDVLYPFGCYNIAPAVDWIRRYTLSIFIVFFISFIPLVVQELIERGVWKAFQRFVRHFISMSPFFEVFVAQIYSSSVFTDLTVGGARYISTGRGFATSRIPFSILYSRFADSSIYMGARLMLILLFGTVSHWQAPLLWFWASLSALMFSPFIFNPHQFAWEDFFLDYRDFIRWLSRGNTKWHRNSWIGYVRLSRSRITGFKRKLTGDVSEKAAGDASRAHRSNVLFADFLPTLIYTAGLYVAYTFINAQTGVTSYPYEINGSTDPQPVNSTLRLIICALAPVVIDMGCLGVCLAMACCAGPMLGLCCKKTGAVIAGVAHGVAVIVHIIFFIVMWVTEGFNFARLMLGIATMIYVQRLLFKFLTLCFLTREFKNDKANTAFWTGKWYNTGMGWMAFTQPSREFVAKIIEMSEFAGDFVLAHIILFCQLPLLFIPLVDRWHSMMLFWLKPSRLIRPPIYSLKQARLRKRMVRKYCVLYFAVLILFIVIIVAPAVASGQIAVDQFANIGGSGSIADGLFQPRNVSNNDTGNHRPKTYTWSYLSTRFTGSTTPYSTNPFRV
T2 sequence (O13428 1-1897): as above

Consider `CCCCCC=CC=CC(=O)OCC1OC(OC2C(CO)OC(c3c(O)cc(O)cc3CO)C(O)C2OC(=O)C=CC=CCC(O)C=CC=CCCCCC)C(OC2OC(CO)C(O)C(O)C2O)C(O)C1O` (stereo not shown) [Example 4, fusacandin A], for which the MIC in assay [1] was 50 µg/mL (≈ 48.9 µM); in [2], 12.5 µg/mL (≈ 12.2 µM); in assay [3] (144 h, no sorbitol), 0.48 µg/mL (≈ 0.469 µM); in assay [4] it was 6.25 µg/mL (≈ 6.11 µM); with Candida albicans CCH 442 (Table 6a, Candida albicans CCH 442, 32° C., 20 hours, read-out: MIC), 6.26 µg/mL (≈ 6.12 µM); in the assay on Candida albicans CCH 442 (setting [19]), 0.78 µg/mL (≈ 0.762 µM). For the same compound, the MIC is 6.25 µg/mL (≈ 6.11 µM) in the assay with Candida kefyr ATTC 288 (ATTC288, Table 6a, Candida kefyr ATTC 288, agar dilution, 32° C., 20 hours, read-out: MIC); 6.25 µg/mL (≈ 6.11 µM) in assay [5] (Table 6a); 3.12 µg/mL (≈ 3.05 µM) in [6] (Table 6a); 0.78 µg/mL (≈ 0.762 µM) with Candida albicans 579a (setting [20]); 6.25 µg/mL (≈ 6.11 µM) in [7] (Table 6a, Candida tropicalis NRRL-Y-1); 6.25 µg/mL (≈ 6.11 µM) in assay [8] (Table 6a). For the same compound, the MIC in assay [9] (Table 6a) was found to be 3.12 µg/mL (≈ 3.05 µM); in [10] it was 0.78 µg/mL (≈ 0.762 µM); in assay [11], 12.5 µg/mL (≈ 12.2 µM); in assay [12], 1.56 µg/mL (≈ 1.52 µM); in assay [13], 1.56 µg/mL (≈ 1.52 µM); in assay [14], 12.5 µg/mL (≈ 12.2 µM). Moreover, the MIC in [15] was 0.5 µg/mL (≈ 0.489 µM). For the same compound, the IC50 at (1,3)-β-Glucan Synthase (0.5% Brij-35, read-out: IC50 With Brij-35 (converted)) was 6.84 µM; at (1,3)-β-Glucan Synthase (0.8% BSA, read-out: IC50 With BSA (converted)) it was 111 µM; at glucan synthase (read-out: IC50 (converted)), 20 µM.
Take `CCCCC/C=C/C=C/C(O)C/C=C/C=C/C(=O)O[C@@H]1[C@@H](O)[C@H](c2c(O)cc(O)cc2CO)O[C@H](CO)[C@H]1O[C@@H]1O[C@H](CO)[C@H](O)[C@H](O)[C@H]1O[C@@H]1O[C@H](CO)[C@H](O)[C@H](O)[C@H]1O` (stereo partly shown) [Example 7, fusacandin B]: the MIC in the assay on Candida albicans CCH 442 (Table 6b, Candida albicans CCH 442, 32° C., 20 hours, read-out: MIC) was 50 µg/mL (≈ 57.3 µM); in the assay with Candida albicans CCH 442 (setting [19]), 25 µg/mL (≈ 28.6 µM); with Candida kefyr ATTC 288 (ATCC288, 20 h), 100 µg/mL (≈ 115 µM); in assay [5] (Table 6b), above 100 µg/mL; in [6] (Table 6b) it was 50 µg/mL (≈ 57.3 µM); in the assay on Candida albicans 579a (Candida albicans, 579A, 20 h), 50 µg/mL (≈ 57.3 µM). The MIC in the assay on Candida albicans 579a (setting [20]) was 25 µg/mL (≈ 28.6 µM); in assay [7] (Table 6b, Candida tropicalis NRRL Y-1), 50 µg/mL (≈ 57.3 µM); in assay [8] (Table 6b) it was 100 µg/mL (≈ 115 µM); in [9] (Table 6b), 100 µg/mL (≈ 115 µM); in assay [10], above 100 µg/mL; in assay [12], 50 µg/mL (≈ 57.3 µM). Also, the MIC was 50 µg/mL (≈ 57.3 µM) in assay [16], 50 µg/mL (≈ 57.3 µM) in [13], above 100 µg/mL in assay [17] and above 100 µg/mL in [18].
Take `CCC(O)/C=C/C=C/C=C/C(=O)OC[C@H]1O[C@@H](O[C@H]2[C@H](OC(=O)/C=C/C=C/CC(O)/C(C)=C/C=C/CCC(C)CC)[C@@H](O)[C@@]3(OCc4cc(O)cc(O)c43)O[C@@H]2CO)[C@H](O)[C@@H](O)[C@H]1O` (stereo partly shown) [Papulacandin B, papulacandin B, reference compound]: the “IC50 With Brij-35” value against (1,3)-β-Glucan Synthase (0.5% Brij-35) came to 0.8 µg/mL (≈ 0.888 µM). The “IC50 With BSA” value against (1,3)-β-Glucan Synthase (0.8% BSA) came out at 16.3 µg/mL (≈ 18.1 µM). The compound further had an IC50 against glucan synthase of 3.6 µg/mL. In assay [3], the “MIC No sorbitol” value was 0.48 µg/mL (≈ 0.533 µM). Further, the “minimum inhibitory concentration (MIC)” value in [15] was 1.0 µg/mL (≈ 1.11 µM).

For orientation: MIC means the least concentration at which growth counts as inhibited. Usually IC50 stands for the concentration needed to halve the response being measured.
